The source of these data is paper PMC4965013, “Open Source Drug Discovery with the Malaria Box Compound Collection for Neglected Diseases and Beyond” (PLoS Pathogens, 2016).

In test [1] the test system is P. falciparum 3D7A stage V gametocytes, female gamete formation. On the set-up: method as in ref [73] (a number printed in a supplementary file, which may have a reference list of its own: not looked up in the article's list). To be noted: 5µM; ref [73]; cited from earlier work.
In test [2] the test system is B. bigemina (Argentine strain). The test can be described thus: B. bigemina fluorescence-based growth assay. In kind it is cell-based. The following applies: Babesia bigemina.
For test [3], the system named is P. falciparum Stage V male and female gametocytes. On the set-up: method as in ref [74] (a number printed in a supplementary file, which may have a reference list of its own: not looked up in the article's list). To be noted: 1µM; ref [74]; cited from earlier work.
Another test concerns B. caballi (USDA). Nature of the test: B. caballi fluorescence-based growth assay. Format: cell-based. The following applies: Babesia caballi.
For test [4], the system named is Leishmania infantum MHOM/MA/BE/67. To be noted: ref [84]; read-out: Leishmania infantum EC50 intracellular amastigotes in primary macrophages; cited from earlier work.
Test [5] has as its system S. mansoni newly transformed schistosomula (NTS). On the set-up: method as in ref [91] (a number printed in a supplementary file, which may have a reference list of its own: not looked up in the article's list). The following applies: ref [91]; read-out: Schistosoma mansoni newly transformed schistosomula EC50 J. Keiser; cited from earlier work.
For another test, the system named is T. equi (USDA strain). Nature of the test: T. equi fluorescence-based growth assay. The following applies: Theileria equi. In kind it is cell-based.
In test [6] the test system is HIV-1 JR-FL or HIV-1 NL4-3 viruses. The test can be described thus: HIV-1 viral production p24 ELISA. In kind it is cell-based. Here is the method:
Columns FK-GB, Moore group (data presented first in this paper). HIV and HIV-producing cell lines, toxicity and viral suppression. […] MMV compounds were incubated with HIV-1 JR-FL or HIV-1 NL4-3 pseudoviruses and U87-CD4-CCR5 or U87-CD4-CXCR4 cells (obtained through the NIH AIDS Reagent Program, Division of AIDS, NIAID, NIH: U87 CD4+CCR5+ Cells from Dr. HongKui Deng and Dr. Dan R. Littman) respectively for 3 days. Cells were assayed for infection by luciferase production (Bright-Glo Luciferase Substrate, Promega) and cell viability by MTT assay. […] MMV compounds were next incubated with HIV-1 JR-FL or HIV-1 NL4-3 viruses and U87-CD4-CCR5 or U87-CD4-CXCR4 cells respectively for 7 days. Cell supernatants were assayed for viral production by p24 ELISA [153] and cell viability by MTT assay. […] DMSO (5%) was completely toxic to all cells (based on visual inspection) and served as the positive control for MTT assays.

Test [7] deals with P. berghei liver stages in HepG2. Nature of the test: P. berghei liver stage luciferase Hanson. In kind it is cell-based. The following applies: Plasmodium berghei, read-out: P. berghei Liver Stage % of control infection (Luciferase). As for the experimental part:
Columns AS-AT: Hanson group (data presented first in this paper). P. berghei liver stage growth. Phenotypic analysis of Malaria Box compound activity against P. berghei liver stages and assay development will be reported elsewhere (Medina Vera, Itoe, et al; in preparation). Methods: Screening was carried out in 96 well plates, with 10,000 HepG2 cells (ATCC) seeded one day prior to infection with 10,000 P. berghei-Luciferase (676m1cl1) sporozoites per well in the presence of 1:300 Fungizone (Life Technologies). Medium was replaced 2 hours post-infection (hpi) and the Malaria Box compounds were added at a final concentration of 5 µM at this time. At 48 hpi, parasite load, by way of luminescence, was quantified after a 10 minute incubation with 50 µl of 150 µg/ml D-Luciferin on a Tecan Infinite M200 plate reader. Plates included 8 wells of DMSO (compound vehicle and positive control for infection), along with 8 non-infected wells serving as negative controls. Luminescence values for individual wells were normalized to the mean of the in-plate DMSO controls, which was set at 100. […] The normalized mean of non-infected control wells was 2.5, with a standard deviation of 2. Data presented are the average of 3 independent experiments, each conducted in technical triplicate. Toxicity of the compounds was determined at 66 hpi based on HepG2 cell abundance in 9 non-overlapping images per well, generated with a Molecular Devices IXM using a 40x objective. Briefly, EEFs were identified based on 2E6 immunolabeling and used to mask widefield images of Hoechst 33452-labeled nuclei, and the percentage of each 2,160 x 2,160 pixel image occupied by Hoechst^+ pixels, representing HepG2 nuclei only, was then determined for all images in CellProfiler. Data is from one representative experiment. The mean area occupied by HepG2 nuclei in the 8 DMSO controls wells was set to 1, and used to normalize those treated with compounds.

Another test deals with B. bovis (Texas strain). The test can be described thus: B. bovis fluorescence-based growth assay. In kind it is cell-based. To be noted: Babesia bovis, in Bos taurus.
The subject of test [8] is P. falciparum NF54 late-stage gametocytes. The following applies: 5 µM; ref [55]; cited from earlier work.
The subject of test [9] is P. falciparum NF54Pfs16 gametocytes stage I-III. The following applies: ref [61], cited from earlier work.
In test [10] the test system is Mycobacterium marinum in Acanthamoeba castellanii. The test can be described thus: A. castellanii-M. marinum infection assay. The following applies: 10µM. Format: cell-based. Here is the method: Columns FA-FC: Soldati Group (data presented first in this paper). M. marinum, D. discoideum, and Acathamoeba castellani assays. Each compound of the Malaria Box has been assayed at 10 µM in all three assays. First, the antibiotic activity was assayed directly against Mycobacterium marinum in its culture medium. Second, the toxicity and growth inhibitory effect of the compounds was assayed against the amoeba Dictyostelium discoideum in its culture medium. Finally, the “in cellulo” anti-infective activity of each compound was tested using the intracellular infection system Acanthamoeba castellanii-M. marinum. Values have been normalized using the DMSO carrier. For each assay, values have been normalized to 1.00 using the DMSO carrier, which has no detectable effect on D. discoideum nor M. marinum growth, while rifabutin was used as positive control for the antibiotic assay and the infection assay, as it abolishes M. marinum growth (normalized value under 0.10) in broth at 10 µM and intracellularly at 30 µM [150].

Test [11] deals with Leishmania donovani axenic amastigotes. The test can be described thus: L. donovani axenic amastigotes Scynexis. In kind it is cell-based.
The next test has as its system Haemonchus contortus. The test can be described thus: Haemonchus contortus Scynexis. Format: cell-based. To be noted: 10µM.
Test [12] deals with P. falciparum NF54 gametocytes. Details: method as in ref [72] (a number printed in a supplementary file, which may have a reference list of its own: not looked up in the article's list). To be noted: 10µM; ref [72]; cited from earlier work.
Setting [13] is: Human immunodeficiency virus 1, NL43, read-out: HIV R5 % inhibition rep3 in U87 (P24 Washout).
The mark [14] stands for this setting: Human immunodeficiency virus 1, NL43, read-out: HIV X4 % inhibition rep3 in U87 (P24 NO Washout).
[15] abbreviates: Human immunodeficiency virus 1, NL43, read-out: HIV X4 %inhibition rep3 in U87 (P24 Washout).
Where [16] appears, read: Human immunodeficiency virus 1, NL43, read-out: HIV R5 % inhibition rep3 in U87 (P24 NO Washout).

Like-named read-outs stand apart in the source and are kept apart here.

A word on the EC50: it is the concentration that produces a half-maximal response. A word on the inhibition: it is the change of the read-out against control, counted positive when it falls.

As to `CCN(CC)c1cc(C)c2cc(NC(=O)c3cccc(OC)c3)ccc2n1` [MMV000498], in test [1], the “3D7A female gamete formation acridine orange % inhibition” value is recorded as 3%. For the same compound, the half-maximal effective concentration (EC50) in test [2] is 8.99 µM; in the test with B. caballi (USDA), 9.33 µM; in test [4], 16.2 µM; in test [5], > 33.3 µM; with T. equi (USDA strain) it was 0.46 µM; in the test on B. bovis (Texas strain), 10 µM. Moreover, in test [3], the “Male gametocyte Stage V % inhibition of gamete formation” value was -1.33%. In test [3], the “female gametocyte Stage V % inhibition of gamete formation” value (“female gametocyte Stage V % inhibition” below) was -22%. For the same compound, the inhibition at 5 µM is -9% in test [6] (setting [13]), -118% in [6] (setting [14]), -40% in test [6] (setting [15]) and -65% in test [11]. Besides, the activity at 5 µM in [7] is 63%. Further, in test [8], the “gametocyte NF54 late stage (IV-V) % inhibition Cassera” value is 47%. Further, the entries for the “gametocyte early stage (I-III) luciferase % inhibition” value in test [9] (0.5µM), in test [9] (2.5µM) and in test [9] (5µM) were -15%, -18% and -3.81%, respectively. In addition, the “Mycobacterium marinum growth in Acanthamoeba castellanii DMSO=1 Infection Assay” value (“Mycobacterium marinum growth” for short) in test [10] is recorded as 0.94. Also, the “Haemonchus contortus 96hr % dead” value with Haemonchus contortus came to 100%. The “gametocyte stage IV-V SYBR Green % inhibition” value in test [12] is reported as 60%.
Regarding `COc1cc2cc(C(=O)Nc3ccccc3)c(N)nc2cc1OC` [MMV006767], the “3D7A female gamete formation acridine orange % inhibition” value in [1] was -3%. Also, the EC50 in [2] is 21.1 µM; with B. caballi (USDA) it was 6.22 µM; in test [5], > 33.3 µM; in the test on T. equi (USDA strain), 3.04 µM; in the test on B. bovis (Texas strain), 0.86 µM. Moreover, the “Male gametocyte Stage V % inhibition of gamete formation” value in test [3] was 22%. In addition, in test [3], the “female gametocyte Stage V % inhibition” value is reported as -10%. In addition, the inhibition at 5 µM in test [6] (setting [16]) is 103%; in test [6] (setting [13]), 9%; in test [6] (setting [14]) it was 104%; in test [6] (setting [15]), 56%; in test [11], -49%. In addition, the activity at 5 µM in [7] worked out at 53%. For the same compound, the “gametocyte NF54 late stage (IV-V) % inhibition Cassera” value in test [8] is recorded as 7%. The “gametocyte early stage (I-III) luciferase % inhibition” value in test [9] (0.5µM) is given as -7%; in [9] (2.5µM), 7.41%; in test [9] (5µM), 19%. Moreover, the “Mycobacterium marinum growth” value in test [10] is on record as 1.18. The “Haemonchus contortus 96hr % dead” value in the test on Haemonchus contortus came to 57%. In [12], the “gametocyte stage IV-V SYBR Green % inhibition” value is listed as 60%.
In the case of `CCN1CCN(c2cc(C)c3cc(NC(=O)c4ccc(OC)c(OC)c4)ccc3n2)CC1` [MMV019074], the “3D7A female gamete formation acridine orange % inhibition” value in test [1] is on record as -18%. The EC50 in test [2] was 7.92 µM; in the test with B. caballi (USDA) it was 5.93 µM; in test [4], 6.35 µM; in test [5] it was > 33.3 µM; with T. equi (USDA strain), 0.33 µM; in the test with B. bovis (Texas strain), 6.69 µM. The “Male gametocyte Stage V % inhibition of gamete formation” value in test [3] is -3.72%. Moreover, the “female gametocyte Stage V % inhibition” value in test [3] is given as -9%. In addition, the inhibition at 5 µM was 7% in [6] (setting [13]), 14% in test [6] (setting [14]), 6.64% in [6] (setting [15]) and -34% in test [11]. The activity at 5 µM in test [7] turned out to be 105%. Moreover, the “gametocyte NF54 late stage (IV-V) % inhibition Cassera” value in test [8] is reported as 27%. Besides, the results for the “gametocyte early stage (I-III) luciferase % inhibition” value in test [9] (0.5µM), in test [9] (2.5µM) and in test [9] (5µM) were -13%, -14% and -6.56%, respectively. In test [10], the “Mycobacterium marinum growth” value is reported as 0.93. Moreover, the “Haemonchus contortus 96hr % dead” value in the test with Haemonchus contortus worked out at 31%. The “gametocyte stage IV-V SYBR Green % inhibition” value in [12] was 47%.
Regarding `COc1ccc(C(=O)Nc2ccc3nc(N4CCCCC4)cc(C)c3c2)cc1OC` [MMV019758], the EC50 was 0.46 µM in test [2]; 0.51 µM with B. caballi (USDA); 16.2 µM in test [4]; > 33.3 µM in test [5]; 6.99 µM with T. equi (USDA strain); 14.3 µM in the test with B. bovis (Texas strain). The “Male gametocyte Stage V % inhibition of gamete formation” value in test [3] is 10%. In addition, the “female gametocyte Stage V % inhibition” value in test [3] is -48%. Also, the inhibition at 5 µM in test [6] (setting [16]) is 31%; in test [6] (setting [13]), 83%; in test [6] (setting [14]) it was 68%; in test [6] (setting [15]) it was 24%; in test [11] it was -50%. The activity at 5 µM in test [7] came to 74%. Besides, in test [8], the “gametocyte NF54 late stage (IV-V) % inhibition Cassera” value was 56%. In addition, the “gametocyte early stage (I-III) luciferase % inhibition” value is -7% in [9] (0.5µM), -13% in [9] (2.5µM) and -5.6% in test [9] (5µM). Also, the “Mycobacterium marinum growth” value in [10] stood at 1.23. Moreover, the “Haemonchus contortus 96hr % dead” value in the test with Haemonchus contortus was 75%. The “gametocyte stage IV-V SYBR Green % inhibition” value in test [12] was 49%.
